The term logP denotes a log measure of how a compound divides between an organic and an aqueous phase. A low value points to a more hydrophilic compound. On to `O=C(CN1CCOCC1)NC1COc2ccc(Cl)cc21` (stereo not drawn), for which the logP amounted to 1.55.

`O=C(CN1CCCCC1)NC1COc2ccccc21` (stereo not drawn) displayed a logP of 2.3.

Consider `CCN(CC)CC(=O)NC1COc2ccc(Cl)cc21` (stereo not drawn), for which the logP was 2.88.

Take `COc1ccc2c(c1)OCC2NC(=O)CN1CCCCC1` (stereo not drawn): the logP stood at 2.41.

On to `O=C(CN1CCCC1)NC1COc2ccc(Cl)cc21` (stereo not drawn), for which the logP was found to be 2.47.

The molecule `CCCCN(CCCC)CC(=O)NC1COc2ccccc21` (stereo not drawn) came in with a logP of 4.15.

In turn, `O=C(CN1CCCCC1)NC1COc2ccc(Cl)cc21` (stereo not drawn) yielded a logP of 3.01.

In turn, `CCCCN(CCCC)CC(=O)NC1COc2ccc(Cl)cc21` (stereo not drawn) registered a logP of 4.44.

For the molecule `CCN(CC)CC(=O)NC1COc2ccc(C)cc21` (stereo not drawn), the logP turned out to be 2.69.

In turn, `O=C(CN1CCOCC1)NC1COc2ccccc21` (stereo not drawn) came in with a logP of 0.81.

Regarding `O=C(CN1CCCC1)NC1COc2ccccc21` (stereo not drawn), the logP is 1.76.

Consider `CCCCN(CCCC)CC(=O)NC1COc2ccc(C)cc21` (stereo not drawn), for which the logP amounted to 4.43.

The molecule `Cc1ccc2c(c1)C(NC(=O)CN1CCCC1)CO2` (stereo not drawn) yielded a logP of 2.24.

Turning to `CCCCN(CCCC)CC(=O)NC1COc2cc(OC)ccc21` (stereo not drawn), the logP turned out to be 4.24.

`COc1ccc2c(c1)OCC2NC(=O)CN1CCOCC1` (stereo not drawn) came in with a logP of 0.92.

In turn, `CCN(CC)CC(=O)NC1COc2ccccc21` (stereo not drawn) gave a logP of 2.2.

In turn, `Cc1ccc2c(c1)C(NC(=O)CN1CCOCC1)CO2` (stereo not drawn) showed a logP of 1.38.

The molecule `Cc1ccc2c(c1)C(NC(=O)CN1CCCCC1)CO2` (stereo not drawn) displayed a logP of 2.78.

The values above are taken from the SangsterLogP compilation.
